# Results reported in patent publication US11952611B2, “Methods and systems for detection of antibiotic resistance” (Laboratory Corporation of America Holdings, priority 2017, dated 2024).
# Read-outs that look alike come from different tables or passages of the source.
# Experiments:
# [1] = tested on: MRSA; test: Recombinant phage luciferase assay, oxacillin vs cefoxitin (Table 1), MRSA strains; assay type: cell-based, Staphylococcus aureus
# Protocol: (§1) Bacterial strains were serially diluted to approximately 1×10^3 CFU/mL and transferred to a 96-well plate at 135 μL per well. 15 μL of oxacillin or cefoxitin were added to the wells to reach a final concentration of 1.0 μg/mL or 2.0 μg/mL of oxicillin or 2.0 μg/mL, 4.0 μg/mL, 8.0 μg/mL, or 10.0 μg/mL of cefoxitin. The plate was then sealed and incubated at 37° C. for 2 hours. 10 μL of recombinant phage (1.6×10^8 pfu/mL) was added to each well. The plate was then re-sealed and incubated at 37° C. for 2 hours. A master mix was made containing 15 μL 5× lysis buffer, 50 μL luciferase assay buffer, and 1 μL luciferase substrate per well. 65 μL of master mix was added to each well. Luminescence from the reactions was read on a GLOMAX® Navigator and relative luminal units (RLU) for each reaction were analyzed. RLU values three times greater than an established background RLU level for LB (>750 RLU) were considered positive. The results, shown in Table 1, indicate that the recombinant phage are capable of detecting the tested bacterial strains.
# [2] = tested on: MSSA; test: Recombinant phage luciferase assay, oxacillin vs cefoxitin (Table 1), MSSA strains; assay type: cell-based, Staphylococcus aureus
# Protocol: as §1
# [3] = tested on: E. coli O157:H7; assay type: cell-based; conditions: for signal reduction as compared to controls: 30 min antibiotic then 120 min phage
# [4] = strain AR0463 MRSA, detected CFU 419
# [5] = strain AR0465 MRSA, detected CFU 111
# [6] = strain AR0472 MRSA, detected CFU 190
# [7] = strain AR0476 MRSA, detected CFU 194
# [8] = strain AR0481 MRSA, detected CFU 43
# [9] = strain BAA-1720 MRSA, detected CFU 201
# [10] = strain 12600 MSSA, detected CFU 389
# [11] = strain AR0484 MSSA, detected CFU 153
# [12] = strain AR0488 MSSA, detected CFU 285
# [13] = strain AR0491 MSSA, detected CFU 300
smiles,measurement,setting,value
"Cc1onc(-c2ccccc2)c1C(=O)N[C@@H]1C(=O)N2[C@@H]1SC(C)(C)[C@@H]2C(=O)O [Oxacillin, oxacillin]",detection after incubation with oxacillin,[1]; several MRSA strains,no detection
same,Oxacillin (RLU) 1 ug/mL,[1]; [4],426 RLU
same,Oxacillin (RLU) 2 ug/mL,[1]; [4],353 RLU
same,Oxacillin (RLU) 1 ug/mL,[1]; [5],4944 RLU
same,Oxacillin (RLU) 2 ug/mL,[1]; [5],4965 RLU
same,Oxacillin (RLU) 1 ug/mL,[1]; [6],348 RLU
same,Oxacillin (RLU) 2 ug/mL,[1]; [6],281 RLU
same,Oxacillin (RLU) 1 ug/mL,[1]; [7],553 RLU
same,Oxacillin (RLU) 2 ug/mL,[1]; [7],212 RLU
same,Oxacillin (RLU) 1 ug/mL,[1]; [8],467 RLU
same,Oxacillin (RLU) 2 ug/mL,[1]; [8],268 RLU
same,Oxacillin (RLU) 1 ug/mL,[1]; [9],23810 RLU
same,Oxacillin (RLU) 2 ug/mL,[1]; [9],22560 RLU
same,detection after incubation with oxacillin,[2]; several MSSA strains,no detection
same,Oxacillin (RLU) 1 ug/mL,[2]; [10],1459 RLU
same,Oxacillin (RLU) 2 ug/mL,[2]; [10],697 RLU
same,Oxacillin (RLU) 1 ug/mL,[2]; [11],268 RLU
same,Oxacillin (RLU) 2 ug/mL,[2]; [11],219 RLU
same,Oxacillin (RLU) 1 ug/mL,[2]; [12],228 RLU
same,Oxacillin (RLU) 2 ug/mL,[2]; [12],198 RLU
same,Oxacillin (RLU) 1 ug/mL,[2]; [13],245 RLU
same,Oxacillin (RLU) 2 ug/mL,[2]; [13],221 RLU
CC1(C)S[C@@H]2[C@H](NC(=O)[C@H](N)c3ccccc3)C(=O)N2[C@H]1C(=O)O [ampicillin],cells resistant or sensitive,[3],sensitive
same,signal reduction as compared to controls,[3]; 10 μg/mL,about 100 fold
same,signal reduction as compared to controls,[3]; 25 μg/mL,~1400 fold
same,signal reduction as compared to controls,[3]; 50 μg/mL,~2200 fold
CN[C@H](CC(C)C)C(=O)N[C@H]1C(=O)N[C@@H](CC(N)=O)C(=O)N[C@H]2C(=O)N[C@H]3C(=O)N[C@H](C(=O)N[C@H](C(=O)O)c4cc(O)cc(O)c4-c4cc3ccc4O)[C@H](O)c3ccc(c(Cl)c3)Oc3cc2cc(c3O[C@@H]2O[C@H](CO)[C@@H](O)[C@H](O)[C@H]2O[C@H]2C[C@](C)(N)[C@H](O)[C@H](C)O2)Oc2ccc(cc2Cl)[C@H]1O [vancomycin],cells resistant or sensitive,[3],resistant
same,signal change upon exposure,"[3]; 10 μg/mL, 25 μg/mL, 50 μg/mL, or 100 μg/mL",signals increased
